Experimental data: PubChem BioAssay (NCI)
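Dose response: 5 concentrations. Exposure: 48 h. Format: 96-well plates. Endpoint: linear interpolation; highest concentration if not reached. GI50 is the concentration that inhibits growth by half. TGI marks complete inhibition of growth.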

Legend:
Experiment in all cases: growth of human tumour cells (NCI), 48 h
MDA-MB-468 breast = system: MDA-MB-468 breast
HL-60(TB) leukemia = system: HL-60(TB) leukemia
SF-295 CNS = system: SF-295 CNS
SNB-75 CNS = system: SNB-75 CNS
SNB-19 CNS = system: SNB-19 CNS
DU-145 prostate = system: DU-145 prostate
RPMI-8226 leukemia = system: RPMI-8226 leukemia
PC-3 prostate = system: PC-3 prostate
MCF7 breast = system: MCF7 breast
TK-10 renal = system: TK-10 renal
SW-620 colon = system: SW-620 colon
HT29 colon = system: HT29 colon
IGROV1 ovarian = system: IGROV1 ovarian
HOP-92 NSCLC = system: HOP-92 NSCLC
CCRF-CEM leukemia = system: CCRF-CEM leukemia
OVCAR-4 ovarian = system: OVCAR-4 ovarian
T-47D breast = system: T-47D breast
NCI-H460 lung = system: NCI-H460 lung
EKVX NSCLC = system: EKVX NSCLC
HCT-116 colon = system: HCT-116 colon
KM12 colon = system: KM12 colon
UACC-62 melanoma = system: UACC-62 melanoma
SF-539 CNS = system: SF-539 CNS
MALME-3M melanoma = system: MALME-3M melanoma
NCI/ADR-RES ovarian = system: NCI/ADR-RES ovarian
HCC-2998 colon = system: HCC-2998 colon
COLO 205 colon = system: COLO 205 colon
M14 melanoma = system: M14 melanoma
SF-268 CNS = system: SF-268 CNS
BT-549 breast = system: BT-549 breast
SR leukemia = system: SR leukemia
MOLT-4 leukemia = system: MOLT-4 leukemia
SK-MEL-28 melanoma = system: SK-MEL-28 melanoma
SK-OV-3 ovarian = system: SK-OV-3 ovarian
A498 renal = system: A498 renal
A549 NSCLC = system: A549 NSCLC
HCT-15 colon = system: HCT-15 colon
RXF 393 renal = system: RXF 393 renal
OVCAR-5 ovarian = system: OVCAR-5 ovarian
NCI-H23 lung = system: NCI-H23 lung
OVCAR-3 ovarian = system: OVCAR-3 ovarian
NCI-H522 lung = system: NCI-H522 lung
ACHN renal = system: ACHN renal
SK-MEL-2 melanoma = system: SK-MEL-2 melanoma
SK-MEL-5 melanoma = system: SK-MEL-5 melanoma
MDA-MB-231 breast = system: MDA-MB-231 breast
NCI-H226 lung = system: NCI-H226 lung
HS 578T breast = system: HS 578T breast
U251 CNS = system: U251 CNS
HOP-62 NSCLC = system: HOP-62 NSCLC
LOX IMVI melanoma = system: LOX IMVI melanoma
CAKI-1 renal = system: CAKI-1 renal
UACC-257 melanoma = system: UACC-257 melanoma
K-562 leukemia = system: K-562 leukemia

O=C(Nc1ccc2[nH]c(=S)sc2c1)Nc1ccccc1F
GI50 (MDA-MB-468 breast): 17.7 µM | TGI (MDA-MB-468 breast): > 100 µM

COc1cc(Cl)cc(-c2nn(-c3cccc(NC(=O)Nc4cc(C(F)(F)F)cc(C(F)(F)F)c4)c3)cc2-c2ccncc2)c1
GI50 (MDA-MB-468 breast): 0.349 µM | TGI (MDA-MB-468 breast): 3.15 µM

CCCCCCCCCCC(C(O)c1ccccc1)N1CCCCC1 (stereo not drawn)
GI50 (MDA-MB-468 breast): 1.58 µM | TGI (MDA-MB-468 breast): 3.09 µM

Clc1ccc2nnnn2n1
GI50 (MDA-MB-468 breast): 5.06 µM | TGI (MDA-MB-468 breast): 25.1 µM

COc1cc(/C=N/NC(=O)c2cnn3c2NC(c2ccccc2)C3)ccc1Oc1ccccc1 (stereo not drawn)
GI50 (MDA-MB-468 breast): 0.648 µM | TGI (MDA-MB-468 breast): 5.72 µM

COc1cccc2c1C(=O)c1c(O)c3c(c(O)c1C2=O)C[C@@](O)(C(=O)CO)C[C@@H]3O[C@H]1C[C@H](N)[C@@H](O)[C@H](C)O1
GI50 (MDA-MB-468 breast): 0.094 µM | TGI (MDA-MB-468 breast): 0.304 µM

Nc1nc(N)c2c(n1)NC(c1ccc(F)cc1)C1CCc3ccccc3C1=N2 (stereo not drawn)
GI50 (MDA-MB-468 breast): 1.43 µM | TGI (MDA-MB-468 breast): 6.7 µM

Oc1ccccc1CNCC12CC3CC(CC(C3)C1)C2
GI50 (MDA-MB-468 breast): 12.8 µM | TGI (MDA-MB-468 breast): 31.7 µM

COc1cc(/C=C/C(=O)c2c(C)nc3ccccc3c2/C=C/c2ccc(C)cc2)cc(OC)c1OC
GI50 (MDA-MB-468 breast): 1.88 µM | TGI (MDA-MB-468 breast): 4.26 µM

CN(C)CC1C(=O)O[C@H]2[C@H]1CC/C(COC(=O)c1cc3ccccc3[nH]1)=C\CC[C@@]1(C)O[C@@H]21 (stereo partly drawn)
GI50 (MDA-MB-468 breast): 1.44 µM | TGI (MDA-MB-468 breast): 3.14 µM

COC(=O)CCC1CCC(c2cc(F)ccc2F)(S(=O)(=O)c2ccc(Cl)cc2)CC1 (stereo not drawn)
GI50 (MDA-MB-468 breast): 16.3 µM | TGI (MDA-MB-468 breast): > 100 µM

COc1ccc(NC(=O)COCCOCCNC[C@@H]2C(=O)O[C@H]3[C@H]2CC/C(COC(=O)OC/C2=C/CC[C@@]4(C)O[C@H]4[C@H]4OC(=O)[C@@H](CN(C)C)[C@@H]4CC2)=C\CC[C@@]2(C)O[C@@H]32)c(O)c1C(N)=O
GI50 (MDA-MB-468 breast): 3.04 µM | TGI (MDA-MB-468 breast): 10.8 µM

COc1cccc(OCCCN)c1-c1cc(Nc2cnc(C#N)cn2)n[nH]1
GI50 (MDA-MB-468 breast): 0.0407 µM | TGI (MDA-MB-468 breast): 2.04 µM

CCN1C(=O)N(c2ccccc2)C2NC(=S)N(/N=C/C=C/c3ccccc3)C21 (stereo not drawn)
GI50 (MDA-MB-468 breast): 0.347 µM | TGI (MDA-MB-468 breast): > 100 µM

N#Cc1c(-c2cccs2)cc(-c2cnccn2)nc1SCC(=O)N/N=C/c1ccccc1
GI50 (MDA-MB-468 breast): 3.9 µM | TGI (MDA-MB-468 breast): 13.9 µM

COc1ccc(/C(=N\O)c2cc(C)c(OC)c(C)c2)cc1O
GI50 (MDA-MB-468 breast): 0.0146 µM | TGI (MDA-MB-468 breast): > 100 µM

COC(=O)C1CCCN1C(=O)[C@@H]1CCCN1C(=O)[C@H](Cc1c[nH]c2ccccc12)NC(=S)Nc1cc(C(F)(F)F)cc(C(F)(F)F)c1 (stereo partly drawn)
GI50 (MDA-MB-468 breast): 1.78 µM | TGI (MDA-MB-468 breast): 4.64 µM

CC(=O)NCC1=C(C)C=C2C(=O)[C@](C)(O)C3(CC3)C(C)=C21
GI50 (HL-60(TB) leukemia): 0.0279 µM | TGI (HL-60(TB) leukemia): 0.876 µM | GI50 (SF-295 CNS): 0.0262 µM | TGI (SF-295 CNS): 0.122 µM | GI50 (SNB-75 CNS): 0.0197 µM | TGI (SNB-75 CNS): 0.0735 µM | GI50 (SNB-19 CNS): 0.163 µM | TGI (SNB-19 CNS): 0.751 µM | GI50 (DU-145 prostate): 0.0275 µM | TGI (DU-145 prostate): 0.233 µM | GI50 (RPMI-8226 leukemia): 22.9 µM | TGI (RPMI-8226 leukemia): > 83.5 µM | GI50 (PC-3 prostate): 0.068 µM | TGI (PC-3 prostate): 0.898 µM | GI50 (MCF7 breast): 0.214 µM | TGI (MCF7 breast): > 20.6 µM | GI50 (TK-10 renal): 0.0364 µM | GI50 (SW-620 colon): 13.4 µM | TGI (SW-620 colon): 38.7 µM | GI50 (HT29 colon): 0.0356 µM | GI50 (IGROV1 ovarian): 0.028 µM | TGI (IGROV1 ovarian): 0.0804 µM | GI50 (HOP-92 NSCLC): 0.0261 µM | TGI (HOP-92 NSCLC): 0.0702 µM | GI50 (CCRF-CEM leukemia): 13.5 µM | TGI (CCRF-CEM leukemia): > 84.9 µM | GI50 (OVCAR-4 ovarian): 0.071 µM | TGI (OVCAR-4 ovarian): 0.322 µM | GI50 (T-47D breast): 0.0438 µM | TGI (T-47D breast): 0.84 µM | GI50 (NCI-H460 lung): 0.0225 µM | TGI (NCI-H460 lung): 0.132 µM | GI50 (EKVX NSCLC): 0.116 µM | TGI (EKVX NSCLC): 0.356 µM | GI50 (HCT-116 colon): 0.0509 µM | GI50 (KM12 colon): 0.257 µM | TGI (KM12 colon): 5.85 µM | GI50 (UACC-62 melanoma): 0.132 µM | TGI (UACC-62 melanoma): 0.278 µM | GI50 (SF-539 CNS): 0.0225 µM | TGI (SF-539 CNS): 0.0565 µM | GI50 (MALME-3M melanoma): 0.0602 µM | TGI (MALME-3M melanoma): 0.181 µM | GI50 (NCI/ADR-RES ovarian): 0.0648 µM | TGI (NCI/ADR-RES ovarian): 0.323 µM | GI50 (HCC-2998 colon): 0.0287 µM | TGI (HCC-2998 colon): 0.103 µM | GI50 (COLO 205 colon): 0.039 µM | TGI (COLO 205 colon): 0.162 µM | GI50 (M14 melanoma): 0.0712 µM | TGI (M14 melanoma): 0.22 µM | GI50 (SF-268 CNS): 0.0332 µM | TGI (SF-268 CNS): 0.577 µM | GI50 (BT-549 breast): 0.0277 µM | TGI (BT-549 breast): 0.0991 µM | GI50 (MDA-MB-468 breast): < 0.0136 µM | TGI (MDA-MB-468 breast): 0.0303 µM | GI50 (SR leukemia): 5.7 µM | TGI (SR leukemia): > 100 µM | GI50 (MOLT-4 leukemia): 8.44 µM | TGI (MOLT-4 leukemia): > 100 µM | GI50 (SK-MEL-28 melanoma): 0.125 µM | TGI (SK-MEL-28 melanoma): 0.293 µM | GI50 (SK-OV-3 ovarian): 0.0301 µM | TGI (SK-OV-3 ovarian): 0.0993 µM | GI50 (A498 renal): 0.0257 µM | TGI (A498 renal): 0.0655 µM | GI50 (A549 NSCLC): 0.0312 µM | TGI (A549 NSCLC): 0.33 µM | GI50 (HCT-15 colon): 0.044 µM | TGI (HCT-15 colon): 0.325 µM | GI50 (RXF 393 renal): 0.0164 µM | TGI (RXF 393 renal): 0.0328 µM | GI50 (OVCAR-5 ovarian): 0.0342 µM | TGI (OVCAR-5 ovarian): 0.24 µM | GI50 (NCI-H23 lung): 0.0159 µM | TGI (NCI-H23 lung): 0.0372 µM | GI50 (OVCAR-3 ovarian): 0.0397 µM | TGI (OVCAR-3 ovarian): 0.472 µM | GI50 (NCI-H522 lung): 0.254 µM | TGI (NCI-H522 lung): 0.997 µM | GI50 (ACHN renal): 0.0228 µM | TGI (ACHN renal): 0.0578 µM | GI50 (SK-MEL-2 melanoma): 0.179 µM | TGI (SK-MEL-2 melanoma): 0.346 µM | GI50 (SK-MEL-5 melanoma): 0.0704 µM | TGI (SK-MEL-5 melanoma): 0.216 µM | GI50 (MDA-MB-231 breast): 0.067 µM | TGI (MDA-MB-231 breast): 0.306 µM | GI50 (NCI-H226 lung): 0.143 µM | TGI (NCI-H226 lung): 0.615 µM | GI50 (HS 578T breast): 0.204 µM | TGI (HS 578T breast): 0.678 µM | GI50 (U251 CNS): 0.051 µM | GI50 (HOP-62 NSCLC): 0.0246 µM | TGI (HOP-62 NSCLC): 0.0761 µM | GI50 (LOX IMVI melanoma): 0.136 µM | TGI (LOX IMVI melanoma): 0.354 µM | GI50 (CAKI-1 renal): 0.0404 µM | TGI (CAKI-1 renal): 0.791 µM | GI50 (UACC-257 melanoma): 0.0934 µM | TGI (UACC-257 melanoma): 0.29 µM | GI50 (K-562 leukemia): 15 µM | TGI (K-562 leukemia): > 100 µM
